The record followed here is article PMC4604408, “Targeting the Parasite's DNA with Methyltriazenyl Purine Analogs Is a Safe, Selective, and Efficacious Antitrypanosomal Strategy” (Antimicrobial Agents and Chemotherapy, 2015).

Structures are written as SMILES. “Also recorded” adds a separate entry of the source.

Data set [1] concerns BF T. brucei. The experiment in a line: growth curves of treated bloodstream-form trypanosomes. The data set is classed as cell-based. The settings on record: 15 µM for 72 h in Fig. S7. The procedure:
Given its promising antiparasitic efficacy in vitro and in vivo, we selected lead compound 1 for further antitrypanosomal mechanism-of-action studies. […] We analyzed the DNA content of these cells over 24 h by flow cytometry (Fig. 3B; see also Fig. S7 in the supplemental material). After 4 h of exposure to 15 μM compound 1, we observed a decrease in the proportion of cells with normal diploid (2C) DNA content, whereas an aberrant population of cells started to appear with a DNA content between 2C and 4C. […] We also monitored the karyotype distribution of BF T. brucei over time (see Fig. S8 in the supplemental material), using DAPI staining to visualize nuclei (N) and kinetoplasts (K). Within the first 8 h (the normal time to complete one cell cycle) of exposure to compound 1, we observed a significant increase in 1N2K cells, with a coincident decrease in 1N1K and 2N2K. […]
FIG 3 Methyltriazenyl purines cause cell cycle arrest in the G2/M phase in T. brucei. […] (b) DNA content of BF T. brucei in the presence or absence of 15 μM compound 1, as determined by propidium iodide staining of fixed cells and measured by fluorescence-activated cell sorting (FACS). […]
Figure S7. […] B) Long term growth curve of bloodstream form T.b. brucei s427 cultures (seeded at 5 × 10^5 cells/mL) exposed to 15 µM of 1 (closed squares) or vehicle only (open circles) monitored for 72 hours. […]

Data set [2] concerns T. brucei brucei (STIB 795). The experiment in a line: mouse model of acute trypanosomiasis. The data set is classed as in vivo. The following applies: female NMRI mice, 50 mg/kg i.p. daily for 4 days from day 3 postinfection.
Data set [3] relates to HEK293 (human embryonic kidney 293T cells). The experiment in a line: cells. The settings on record: read-out: In vitro activity (EC50) HEK293.
Data set [4] concerns His– S. typhimurium strains TA98 and TAMix. The experiment in a line: Ames II mutagenicity assay. The following applies: before (–S9) and after (+S9) metabolic activation, 62.5 µM to 2 mM. The data set is classed as cell-based, Salmonella typhimurium.
Data set [5] deals with T. brucei H2 (hypoxanthine transporter 2 of T. brucei brucei). Type of data set: cell-based. The settings on record: read-out: Transport (Ki value) T. brucei H2.
For the next data set, the system named is Tbb msh2+/-. The experiment in a line: microbe, parasite or virus in culture. The data set is classed as cell-based, Trypanosoma brucei. The settings on record: Trypanosoma brucei, read-out: Tbb msh2+/- (EC50; µM) AVG.
The test system of data set [6] is freshly isolated rat hepatocytes. The experiment in a line: hepatotoxicity on freshly isolated rat hepatocytes. The data set is classed as cell-based. The settings on record: 100 µM, up to 120 min. On the procedure:
page 11: Figure S3 A B C 125 125 125 100 100 100 75 75 75 50 50 50 25 Contr ol 25 Contr ol 25 Contr ol 0 + NA1371 0 +NA1371 0 +NA1371 0 30 60 90 120 0 30 60 90 120 0 30 60 90 120 […] ) Figure S3. […] (A) Hepatocytes from male Sprague-Dawley rats were isolated as described (4, 5) and hepatotoxicity assays were performed as described (6). […] or left untreated. Cell viability was determined by a Trypan blue exclusion test. Values are normalized to t=0 min (%). (B) The reduced glutathione (GSH) content of hepatocytes was determined by an O-phthaldehyde fluorimetric test. […] (C) The total protein content of hepatocytes was determined by a Lowry assay. […]

The test system of data set [7] is T. brucei brucei 427 tbat1^−/−. The experiment in a line: microbe, parasite or virus in culture. The following applies: Trypanosoma brucei, read-out: In vitro activity (EC50) T. brucei brucei 427 tbat1^−/−. The data set is classed as cell-based.
Data set [8] has as its system T. brucei brucei WT (strain 427). The experiment in a line: microbe, parasite or virus in culture. Type of data set: cell-based.
The nature of data set [9]: spontaneous triazene hydrolysis by UV spectroscopy. The following applies: 50 µM in PBS at 37 °C, physiological conditions, n=2.
The subject of the next data set is Tbb msh2+/+. The experiment in a line: microbe, parasite or virus in culture. Type of data set: cell-based, Trypanosoma brucei. The following applies: Trypanosoma brucei, read-out: Tbb msh2+/+ (EC50; µM) AVG.
Data set [10] is classed as in vivo. The following applies: up to 10 × 50 mg/kg i.p. daily.
Data set [11] has as its system T. brucei rhodesiense (STIB 900). The experiment in a line: stringent mouse model of trypanosomiasis. The data set is classed as in vivo. The settings on record: female NMRI mice, 50 mg/kg i.p. for four consecutive days from day 3 postinfection. The procedure:
The experiments were performed essentially as described previously ([26]). Female NMRI mice were infected intraperitoneally (i.p.) with 10^4 bloodstream-form T. brucei brucei (strain STIB 795) or 3 × 10^3 T. brucei rhodesiense (strain STIB 900). Experimental groups of four mice were treated i.p. with test drug daily on four consecutive days starting from day 3 postinfection. A control group was infected but remained untreated. The tail blood of each mouse was checked for parasitemia up to 60 days postinfection; mice were culled when parasitemia was >10^8 trypanosomes/ml of blood. Surviving and aparasitemic mice at day 60 were considered cured and were euthanized. All protocols and procedures used in this study were reviewed and approved by the local veterinary authorities of the Canton Basel-Stadt, Switzerland.
Figure S4. Methyltriazenyl purine 1 has a high cure rate in acute T. b. rhodesiense infection in vivo. Kaplan–Meier survival plot for female NMRI mice (n = 4 per group) after infection with T. b. rhodesiense (STIB900) (inoculum 3×10^3 parasites). Intraperitoneal injection with 1 dissolved in DMSO started 3 days after infection at a single dose of 50 mg/kg

The next data set has as its system BF T. brucei brucei. The experiment in a line: TUNEL assay for DNA strand breaks in trypanosomes. The data set is classed as cell-based. The settings on record: 3 μM, 24 h.
The next data set deals with Tbb msh2-/-. The experiment in a line: microbe, parasite or virus in culture. The data set is classed as cell-based, Trypanosoma brucei.
The subject of data set [12] is bloodstream-form T. brucei. The experiment in a line: potency in Creek's minimal medium with inosine or hypoxanthine as purine source. The data set is classed as cell-based.
Data set [13] has as its system BF T. brucei. The experiment in a line: DNA content by propidium iodide staining and flow cytometry. Type of data set: cell-based. The following applies: 15 μM, 24 h. (In general: In flow cytometry, cells or beads pass a laser one at a time.)

For the compound `CC(=O)N(C)N=Nc1nc(O)c2[nH]cnc2n1` [Compound 1, 2-(3-acetyl-3-methyltriazen-1-yl)-6-hydroxypurine], in the data set on BF T. brucei [1], the “effect on culture proliferation” value was “Cell growth is arrested and the cells eventually die; also recorded: arrested in its proliferation”. In addition, the cure rate in data set [2] was 100%; in data set [11], 75%. Further, the “survival of treated mice” value in data set [2] was > 60 days. For the same compound, the EC50 in data set [3] was > 250 µM; in the data set with Tbb msh2+/- it was 1.5 µM; in data set [7] it was 0.52 ± 0.08 µM; in data set [8] (Trypanosoma brucei, read-out: In vitro activity (EC50) T. brucei brucei WT), 0.42 ± 0.05 µM; in the data set on Tbb msh2+/+, 0.87 µM; in the data set on Tbb msh2-/- (Trypanosoma brucei, read-out: Tbb msh2-/- (EC50; µM) AVG), 3.9 µM. Also, the “mutagenic activity in Ames II test” value in data set [4] was “negative (not mutagenic); also recorded: did not reveal any mutagenic activity”. In addition, the inhibition constant (Ki) (commonly the dissociation constant of the complex between target and ligand, obtained from inhibition or displacement) in [5] worked out at 0.59 ± 0.15 µM. Moreover, in [6], the “hepatotoxic effects, hepatocyte viability (Trypan blue exclusion)” value is given as “does not show toxic effects; also recorded: no hepatotoxic effects”. Also, in data set [6], the “total protein content of hepatocytes (Lowry assay)” value was “No protein loss”. Further, the “antitrypanosomal potency against BF T. brucei in vitro (in words)” value in data set [8] is “submicromolar”. Further, the “SI, in vitro selectivity index” value in data set [8] (EC50(HEK)/EC50(T. brucei brucei WT)) was >595. Besides, the hydrolysis half-life in data set [9] is listed as ~6.8 h. The half-life (in general, how long it takes for the measured level to halve) at 50 µM in [9] (PBS, hydrolysis half-life) was 6.8 ± 0.4 h. The tolerability entry in data set [10] is given as “well tolerated”. For the same compound, the “increase in BrdU incorporation (DNA strand breaks)” value in the data set with BF T. brucei brucei is recorded as 2 fold. Besides, the “potency against cells with impaired or lost MSH2 activity” value with Tbb msh2-/- is on record as “reduced potency”. Moreover, the “sensitivity (EC50) in medium with inosine compared to hypoxanthine as purine source” value in data set [12] is reported as “higher”. For the same compound, the “DNA content of treated cells” value with BF T. brucei [13] is reported as “majority of cells having an apparent 4C DNA content”.
